Reference: ChEMBL document CHEMBL2434868, “Chemical investigation of an antimalarial Chinese medicinal herb Picrorhiza scrophulariiflora” (Bioorg Med Chem Lett, 2013)

These molecules were tested on NFF (assay: Cytotoxicity against human NFF cells up to 100 uM after 3 days by SRB assay). Details: 72 h.
Type: cell-based

Row | SMILES | Activity
1 | CC(=O)OC(C)(C)/C=C/C(=O)[C@](C)(O)[C@H]1[C@H](O)C[C@@]2(C)[C@@H]3CC=C4[C@H](C[C@H](O[C@@H]5O[C@H](CO)[C@@H](O)[C@H](O)[C@H]5O)[C@H](O)C4(C)C)[C@]3(C)CC[C@]12C | Non-toxic

The molecules below were run on Plasmodium falciparum (assay: Antimalarial activity against ring stage of Plasmodium falciparum 3D7 infected in erythrocytes assessed as [3H]-hypoxanthine incorporation after 48 hrs by liquid scintillation counting analysis). Details: not given.
Type: functional, organism-based

Row | SMILES | IC50 [µM] | IC90 [µM] | IC95 [µM]
2 | CC(=O)OC(C)(C)/C=C/C(=O)[C@](C)(O)[C@H]1[C@H](O)C[C@@]2(C)[C@@H]3CC=C4[C@H](C[C@H](O[C@@H]5O[C@H](CO)[C@@H](O)[C@H](O)[C@H]5O)[C@H](O)C4(C)C)[C@]3(C)CC[C@]12C | 8.3 | 17.3 | 23.5
3 | O=C(/C=C/c1ccccc1)OC[C@H]1O[C@@H](O[C@@H]2OC=C[C@H]3[C@H](O)[C@@H]4O[C@]4(CO)[C@@H]23)[C@H](O)[C@@H](O)[C@@H]1O [PICROSIDE I] | > 25 | – | –
4 | O=C(/C=C/c1ccc(O)c(O)c1)OC[C@H]1O[C@@H](OC[C@@H](O)[C@@H](O)[C@H](O)[C@H](O)CO)[C@H](O)[C@@H](O)[C@@H]1O | > 25 | – | –
5 | COc1cc(/C=C/C(=O)OC[C@H]2O[C@@H](Oc3ccc(C(C)=O)cc3OC)[C@H](O)[C@@H](O)[C@@H]2O)ccc1O | > 25 | – | –
6 | COc1cc(C(C)=O)ccc1O[C@@H]1O[C@H](COC(=O)/C=C/c2ccc(O)cc2)[C@@H](O)[C@H](O)[C@H]1O | > 25 | – | –

Continued, in another order:

Row | IC50 [µM] | SMILES | IC90 [µM] | IC95 [µM]
7 | > 25 | CC(=O)OC(C)(C)CCC(=O)[C@](C)(O)[C@H]1[C@H](O)C[C@@]2(C)[C@@H]3CC=C4[C@H](C[C@H](O[C@@H]5O[C@H](CO)[C@@H](O)[C@H](O)[C@H]5O)[C@H](O)C4(C)C)[C@]3(C)CC[C@]12C | – | –
8 | > 25 | COc1cc(C(C)=O)ccc1O[C@@H]1O[C@H](COC(=O)/C=C/c2ccccc2)[C@@H](O)[C@H](O)[C@H]1O | – | –
9 | > 25 | CC(=O)c1ccc(O[C@@H]2O[C@H](COC(=O)/C=C/c3ccc(O)cc3)[C@@H](O)[C@H](O)[C@H]2O)cc1 | – | –
10 | > 25 | O=C(/C=C/c1ccccc1)OC[C@H]1O[C@@H](OC[C@@H](O)[C@@H](O)[C@H](O)[C@H](O)CO)[C@H](O)[C@@H](O)[C@@H]1O | – | –
11 | > 25 | COc1cc(C(=O)O)ccc1O[C@@H]1O[C@H](COC(=O)/C=C/c2ccccc2)[C@@H](O)[C@H](O)[C@H]1O | – | –
